This experiment concerns BDF1 mice, P388 leukemia ip, median survival T/C. Put plainly: NCI In Vivo Anticancer Drug Screen. Data for tumor model P388 Leukemia (intraperitoneal) in B6D2F1 (BDF1) mice. The note with it: endpoint: median survival time, higher = longer survival. A digest of the protocol: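 Transplantable tumour in mice; compound vs vehicle dosing; survival scored; ratio of treated to control reported.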

The mark [1] stands for this setting: dose: 100.0 mg/kg/injection, schedule: Q01DX009 (ip), vehicle: Klucel (hydroxypropylcellulose) (HPC).
Setting [2] is: dose: 100.0 mg/kg/injection, schedule: Q04DX003 (ip), vehicle: Klucel (hydroxypropylcellulose) (HPC).
Setting [3] is: dose: 200.0 mg/kg/injection, schedule: Q01DX009 (ip), vehicle: Klucel (hydroxypropylcellulose) (HPC).
[4] abbreviates: dose: 200.0 mg/kg/injection, schedule: Q04DX003 (ip), vehicle: Klucel (hydroxypropylcellulose) (HPC).
[5] abbreviates: dose: 400.0 mg/kg/injection, schedule: Q04DX003 (ip), vehicle: Klucel (hydroxypropylcellulose) (HPC).

Data on ten compounds can be found in PubChem BioAssay AID328 (DTP/NCI, 2004).

Values joined by “and” are separate entries in the source; they are usually repeats but may differ in a detail not shown here. Equal values may be shown once. Inconclusive results and toxic doses are left out.

In the case of `CO[C@@]12[C@H](COC(N)=O)C3=C(C(=O)C(C)=C(N)C3=O)N1C[C@@H]1N[C@@H]12`, the T/C runs as follows: (dose: 0.03 mg/kg/injection, schedule: Q01DX010 (ip), vehicle: water) 100 % of control; (dose: 0.06 mg/kg/injection, schedule: Q01DX010 (ip), vehicle: saline) 123 % of control; (dose: 0.06 mg/kg/injection, schedule: Q01DX010 (ip), vehicle: water) 115 % of control; (dose: 0.13 mg/kg/injection, schedule: Q01DX010 (ip), vehicle: water) 168 % of control; (dose: 0.25 mg/kg/injection, schedule: Q01DX010 (ip), vehicle: saline) 159 % of control and 161 % of control; (dose: 0.25 mg/kg/injection, schedule: Q01DX010 (ip), vehicle: water) 200 % of control. Also, the T/C is, setting by setting: (dose: 0.5 mg/kg/injection, schedule: Q01DX010 (ip), vehicle: saline) 166 % of control and 213 % of control; (dose: 0.5 mg/kg/injection, schedule: Q01DX010 (ip), vehicle: water) 242 % of control; (dose: 1.0 mg/kg/injection, schedule: Q01DX010 (ip), vehicle: saline) 250 % of control and 180 % of control; (dose: 1.0 mg/kg/injection, schedule: Q01DX010 (ip), vehicle: water) 215 % of control; (dose: 1.08 mg/kg/injection, schedule: Q04DX003 (ip), vehicle: saline) 194 % of control and 196 % of control; (dose: 1.8 mg/kg/injection, schedule: Q04DX003 (ip), vehicle: saline) 243 % of control and 222 % of control. The T/C was 90 % of control and 114 % of control (dose: 2.0 mg/kg/injection, schedule: Q01DX010 (ip), vehicle: saline); 105 % of control (dose: 2.0 mg/kg/injection, schedule: Q01DX010 (ip), vehicle: water); 236 % of control and 244 % of control (dose: 3.0 mg/kg/injection, schedule: Q04DX003 (ip), vehicle: saline); 157 % of control (dose: 4.0 mg/kg/injection, schedule: Q01DX001 (ip), vehicle: saline); 90 % of control and 112 % of control (dose: 5.0 mg/kg/injection, schedule: Q04DX003 (ip), vehicle: saline); 176 % of control (dose: 6.0 mg/kg/injection, schedule: Q01DX001 (ip), vehicle: saline). For the setting “dose: 8.0 mg/kg/injection, schedule: Q01DX001 (ip), vehicle: saline”, the T/C is 176 % of control.

Regarding `CC(=O)/C(=C\c1ccc(Cl)c(Cl)c1)C(=O)c1ccccc1`, the T/C is, setting by setting: (dose: 100.0 mg/kg/injection, schedule: Q04DX003 (ip), vehicle: other) 113 % of control; (dose: 200.0 mg/kg/injection, schedule: Q04DX003 (ip), vehicle: other) 113 % of control.

Turning to `NC1CC2C=CCC(C1)C2` (configuration not stated), the T/C is 95 % of control (dose: 37.5 mg/kg/injection, schedule: Q01DX001 (ip), vehicle: saline); 100 % of control (dose: 75.0 mg/kg/injection, schedule: Q01DX001 (ip), vehicle: saline); 100 % of control (dose: 150.0 mg/kg/injection, schedule: Q01DX001 (ip), vehicle: saline).

As for `Nc1ccc(C(=O)Nc2ccc(Nc3ccncc3)cc2)cc1`, the T/C was 109 % of control under setting [1]; 104 % of control under setting [2]; 118 % of control under setting [3]; 104 % of control under setting [4]; 118 % of control (dose: 400.0 mg/kg/injection, schedule: Q01DX009 (ip), vehicle: Klucel (hydroxypropylcellulose) (HPC)); 100 % of control under setting [5].

As for `O=S1(=O)CC(Cl)C(Cl)C1` (configuration not stated), the T/C by setting is: (dose: 3.12 mg/kg/injection, schedule: Q01DX009 (ip), vehicle: saline) 90 % of control and 95 % of control; (dose: 4.5 mg/kg/injection, schedule: Q04DX003 (ip), vehicle: saline) 118 % of control; (dose: 6.25 mg/kg/injection, schedule: Q01DX009 (ip), vehicle: saline) 90 % of control; (dose: 9.0 mg/kg/injection, schedule: Q04DX003 (ip), vehicle: saline) 104 % of control; (dose: 12.5 mg/kg/injection, schedule: Q01DX009 (ip), vehicle: saline) 95 % of control; (dose: 18.0 mg/kg/injection, schedule: Q04DX003 (ip), vehicle: saline) 113 % of control. In addition, the T/C (dose: 26.0 mg/kg/injection, schedule: Q04DX003 (ip), vehicle: saline) was 91 % of control.

As for `CC12CCC(C)(O)C(CC3=C1CCc1ccccc13)C2=O` (configuration not stated), the T/C is, setting by setting: (dose: 75.0 mg/kg/injection, schedule: Q04DX003 (ip), vehicle: saline) 100 % of control; (dose: 150.0 mg/kg/injection, schedule: Q04DX003 (ip), vehicle: saline) 91 % of control; (dose: 300.0 mg/kg/injection, schedule: Q04DX003 (ip), vehicle: saline) 95 % of control.

For `O=C(Nc1ccc(C(=O)O)cc1)Oc1ccc(N(CCCl)CCCl)cc1`, the T/C (dose: 12.0 mg/kg/injection, schedule: Q04DX003 (ip), vehicle: saline) was 163 % of control; the T/C (dose: 19.0 mg/kg/injection, schedule: Q04DX003 (ip), vehicle: saline) was 154 % of control; the T/C (dose: 29.0 mg/kg/injection, schedule: Q04DX003 (ip), vehicle: saline with Tween-80) is 200 % of control; the T/C (dose: 45.0 mg/kg/injection, schedule: Q04DX003 (ip), vehicle: saline with Tween-80) is 235 % of control; the T/C (dose: 66.0 mg/kg/injection, schedule: Q04DX003 (ip), vehicle: saline with Tween-80) is 163 % of control; the T/C (dose: 100.0 mg/kg/injection, schedule: Q04DX003 (ip), vehicle: saline with Tween-80) was 245 % of control. Where the note is “dose: 150.0 mg/kg/injection, schedule: Q04DX003 (ip), vehicle: saline with Tween-80”, the T/C was 190 % of control.

In the case of `CCCCCCC(O)CCCCCC`, the T/C runs as follows: (dose: 100.0 mg/kg/injection, schedule: Q01DX009 (ip), vehicle: other) 90 % of control; (dose: 200.0 mg/kg/injection, schedule: Q01DX009 (ip), vehicle: other) 105 % of control.

As for `Cc1nc2[nH][nH]c(=O)c2nc1C`, the T/C reads like this: under setting [1], 100 % of control; under setting [2], 104 % of control; under setting [3], 110 % of control; under setting [4], 92 % of control; under setting [5], 100 % of control.

As to `COc1ccc(CCn2nnc3ccccc3c2=O)cc1OC`, the T/C was 98 % of control (dose: 50.0 mg/kg/injection, schedule: Q01DX009 (ip), vehicle: saline with Tween-80); 99 % of control (dose: 100.0 mg/kg/injection, schedule: Q01DX009 (ip), vehicle: saline with Tween-80); 105 % of control (dose: 200.0 mg/kg/injection, schedule: Q01DX009 (ip), vehicle: saline with Tween-80).
